Test results taken from PMC6152005, “Fluorination of Naturally Occurring N^6-Benzyladenosine Remarkably Increased Its Antiviral Activity and Selectivity” (Molecules : A Journal of Synthetic Chemistry and Natural …, 2017).

Key:
[1] = Toxicity on treated, uninfected RD cells (MTS/PMS readout); assay type: cell-based; conditions: human, uninfected rhabdomyosarcoma (RD) cells, uninfected, treated RD cells; MTS/PMS; at least three independent dose-response curves
Description: (§1) (Table 2). As previously mentioned, modifications of the N^6-substituent (linker) of the BAPR scaffold led to a remarkable increase of selectivity. Here, we produced a series of BAPR analogues to evaluate the effect of the fluorination of BAPR on the replication of EV71. A cytopathic effect (CPE) reduction assay was performed with the newly synthetized analogues (compounds 5–11) in rhabdomyosarcoma (RD) cells. BAPR, N^6-isopenthenyladenosine, and N^6-furfuryladenosine were included in the screening, and the toxicity of all of the aforementioned compounds was evaluated in parallel on treated-uninfected cells.
(§2) An EV71 BrCr laboratory-adapted strain was used at a low multiplicity of infection (MOI) in a standardized antiviral assay. Briefly, freshly harvested rhadbdosarcoma (RD) cells were seeded in a 96-well plate (2 × 10^4 cells/well) and incubated at 37 °C in 5% CO2. The next day, a serial dilution of the compounds was prepared in assay medium and added to the RD cells. Then, the cells were supplemented with the viral suspension. […] Subsequently, the antiviral effect was quantified using a colorimetric readout with 3-(4,5-dimethylthiazol-2-yl)-5-(3-carboxymethoxyphenyl)-2-(4-sulfophenyl)-2H-tetrazolium/phenazine methosulfate (MTS/PMS method), and the concentration of compound at which a 50% inhibition of virus-induced cell death would be observed (EC50) was calculated from the antiviral dose-response curves. A similar assay setup was used to determine the adverse effect of the compound on uninfected, treated cells for the calculation of the CC50 (concentration of compound that reduces overall cell health with 50% as determined by the MTS/PMS method). The selectivity index (SI) was calculated as a ratio of EC50/CC50.

[2] = test system: rhabdomyosarcoma (RD) cells; assay: as above; assay type: cell-based; conditions: for cytotoxicity (in words): uninfected RD cells, highest concentration tested
Description: as §1, §2

[3] = test system: EV71 strain BrCr; assay: Cytopathic effect (CPE) reduction antiviral assay against EV71 in RD cells (MTS/PMS readout); assay type: cell-based, human enterovirus 71; conditions: for increase of SI relative to BAPR / SI (Selectivity Index): EV71 BrCr, RD cells; for EC50: Enterovirus A, EV71 BrCr in RD cells, inhibition of virus-induced cell death, MTS/PMS, at least three independent dose-response curves; for SI (Selectivity Index): SI = CC50/EC50
Description: as §1
as §2, with “The selectivity index (SI) was calculated as a ratio of EC50/CC50.” left out

Row | SMILES | CC50 [1] [nM] | cytotoxicity (in words) [2] | increase of SI relative to BAPR ([3]; relative to BAPR) [times] | improvement (gain) in potency as compared to BAPR ([3]; EV71 replication in RD cells, relative to BAPR) | EC50 [3] [nM] | SI (Selectivity Index) [3] | CC50 ([2]; uninfected, treated RD cells, MTS/PMS, at least three independent dose-response curves) [nM]
1 | OC[C@H]1O[C@@H](n2cnc3c(NCc4cccc(C(F)(F)F)c4)ncnc32)[C@H](O)[C@@H]1O [Compound 10, N^6-(3-trifluoromethylbenzyl) adenosine] | > 235000 | did not show any cytotoxicity | 230 | four-fold | 68 ± 1 | >3456 | –
2 | OC[C@H]1O[C@@H](n2cnc3c(NCc4ccco4)ncnc32)[C@H](O)[C@@H]1O [Compound 3, N^6-furfuryladenosine, reference compound] | 7800 ± 3400 | – | – | – | 1400 ± 300 | 5.6 | –
3 | OC[C@H]1O[C@@H](n2cnc3c(NCc4ccc(C(F)(F)F)cc4)ncnc32)[C@H](O)[C@@H]1O [Compound 11, N^6-(4-trifluoromethylbenzyl) adenosine] | > 235000 | did not show any cytotoxicity | – | – | 1000 ± 100 | >235 | –
4 | OC[C@H]1O[C@@H](n2cnc3c(NCc4c(F)cccc4F)ncnc32)[C@H](O)[C@@H]1O [Compound 8, N^6-(2,6-difluorobenzyl) adenosine] | > 250000 | – | – | – | 210 ± 10 | >1210 | > 254000
5 | OC[C@H]1O[C@@H](n2cnc3c(NCc4ccccc4C(F)(F)F)ncnc32)[C@H](O)[C@@H]1O [Compound 9, N^6-(2-trifluoromethylbenzyl) adenosine] | > 235000 | did not show any cytotoxicity | – | – | 1000 ± 100 | >235 | –
6 | CC(C)=CCNc1ncnc2c1ncn2[C@@H]1O[C@H](CO)[C@@H](O)[C@H]1O [Compound 2, N^6-isopenthenyladenosine, reference compound] | 6000 ± 600 | – | – | – | 1000 ± 200 | 6.0 | –
7 | OC[C@H]1O[C@@H](n2cnc3c(NCc4ccc(F)cc4)ncnc32)[C@H](O)[C@@H]1O [Compound 7, N^6-(4-fluorobenzyl) adenosine] | 2700 ± 900 | – | 1.25 | – | 140 ± 50 | 19 | –
8 | OC[C@H]1O[C@@H](n2cnc3c(NCc4ccccc4)ncnc32)[C@H](O)[C@@H]1O [Compound 1, N^6-benzyladenosine] | 4300 ± 1600 | – | – | – | 280 ± 50 | 15 | –
9 | OC[C@H]1O[C@@H](n2cnc3c(NCc4ccccc4F)ncnc32)[C@H](O)[C@@H]1O [Compound 5, N^6-(2-fluorobenzyl) adenosine] | 13300 ± 3700 | – | – | – | 300 ± 50 | 44 | –
10 | OC[C@H]1O[C@@H](n2cnc3c(NCc4cccc(F)c4)ncnc32)[C@H](O)[C@@H]1O [Compound 6, N^6-(3-fluorobenzyl) adenosine] | 6200 ± 1800 | – | – | – | 240 ± 90 | 26 | –
